Here are results for eleven compounds from US20250304596A1, “PYRAZINE DERIVATIVES AND USES THEREOF” (FOGHORN THERAPEUTICS INC., priority 2022, published 2025).

Each structure is given as a SMILES string. Bounds are passed on as bounds.

In assay [1] the target is T1, HiBit-BRG1 fusion protein (Homo sapiens, UniProt P51532).
T1 construct: expressed in transfected cells
The experiment in a line: HiBiT-BRG1 cell-based degradation assay (Nano-Glo HiBiT Lytic Detection, 24 h). The following applies: stable HeLa cell line expressing HiBit-BRG1 and LgBit; for Dmax: read-out: BRG1 HiBit Degradation Maximum (%); for DC50: read-out: BRMG1 HiBit Degradation IC50. The essentials:
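Degradation read by lytic NanoBiT luminescence after 24 h compound exposure of a stable HiBit-BRG1/LgBit HeLa line. Ten-point, 3-fold series in duplicate, top final dose 30 μM; DMSO and 2 μM standard degrader define 0% and 100% degradation.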

The target of assay [2] is T2, HiBit-BRM fusion protein (Homo sapiens, UniProt P51531).
T2 construct: expressed in transfected cells
Put plainly: HiBiT-BRM cell-based degradation assay (Nano-Glo HiBiT Lytic Detection, 24 h). Conditions: stable HeLa cell line expressing HiBiT-BRM; for DC50: read-out: BRM HiBit Degradation IC50. The essentials:
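Luminescence from LgBiT complementation after lysis measured HiBiT-BRM levels in stably expressing HeLa cells. Compounds were dosed at up to 30 μM final, in 3-fold 10-point dilutions, for 24 h. Percent degradation was scaled between DMSO wells and wells treated with 2 μM standard BRM/BRG1 degrader.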

T2 sequence (P51531 whole entry, the tested form may be a part): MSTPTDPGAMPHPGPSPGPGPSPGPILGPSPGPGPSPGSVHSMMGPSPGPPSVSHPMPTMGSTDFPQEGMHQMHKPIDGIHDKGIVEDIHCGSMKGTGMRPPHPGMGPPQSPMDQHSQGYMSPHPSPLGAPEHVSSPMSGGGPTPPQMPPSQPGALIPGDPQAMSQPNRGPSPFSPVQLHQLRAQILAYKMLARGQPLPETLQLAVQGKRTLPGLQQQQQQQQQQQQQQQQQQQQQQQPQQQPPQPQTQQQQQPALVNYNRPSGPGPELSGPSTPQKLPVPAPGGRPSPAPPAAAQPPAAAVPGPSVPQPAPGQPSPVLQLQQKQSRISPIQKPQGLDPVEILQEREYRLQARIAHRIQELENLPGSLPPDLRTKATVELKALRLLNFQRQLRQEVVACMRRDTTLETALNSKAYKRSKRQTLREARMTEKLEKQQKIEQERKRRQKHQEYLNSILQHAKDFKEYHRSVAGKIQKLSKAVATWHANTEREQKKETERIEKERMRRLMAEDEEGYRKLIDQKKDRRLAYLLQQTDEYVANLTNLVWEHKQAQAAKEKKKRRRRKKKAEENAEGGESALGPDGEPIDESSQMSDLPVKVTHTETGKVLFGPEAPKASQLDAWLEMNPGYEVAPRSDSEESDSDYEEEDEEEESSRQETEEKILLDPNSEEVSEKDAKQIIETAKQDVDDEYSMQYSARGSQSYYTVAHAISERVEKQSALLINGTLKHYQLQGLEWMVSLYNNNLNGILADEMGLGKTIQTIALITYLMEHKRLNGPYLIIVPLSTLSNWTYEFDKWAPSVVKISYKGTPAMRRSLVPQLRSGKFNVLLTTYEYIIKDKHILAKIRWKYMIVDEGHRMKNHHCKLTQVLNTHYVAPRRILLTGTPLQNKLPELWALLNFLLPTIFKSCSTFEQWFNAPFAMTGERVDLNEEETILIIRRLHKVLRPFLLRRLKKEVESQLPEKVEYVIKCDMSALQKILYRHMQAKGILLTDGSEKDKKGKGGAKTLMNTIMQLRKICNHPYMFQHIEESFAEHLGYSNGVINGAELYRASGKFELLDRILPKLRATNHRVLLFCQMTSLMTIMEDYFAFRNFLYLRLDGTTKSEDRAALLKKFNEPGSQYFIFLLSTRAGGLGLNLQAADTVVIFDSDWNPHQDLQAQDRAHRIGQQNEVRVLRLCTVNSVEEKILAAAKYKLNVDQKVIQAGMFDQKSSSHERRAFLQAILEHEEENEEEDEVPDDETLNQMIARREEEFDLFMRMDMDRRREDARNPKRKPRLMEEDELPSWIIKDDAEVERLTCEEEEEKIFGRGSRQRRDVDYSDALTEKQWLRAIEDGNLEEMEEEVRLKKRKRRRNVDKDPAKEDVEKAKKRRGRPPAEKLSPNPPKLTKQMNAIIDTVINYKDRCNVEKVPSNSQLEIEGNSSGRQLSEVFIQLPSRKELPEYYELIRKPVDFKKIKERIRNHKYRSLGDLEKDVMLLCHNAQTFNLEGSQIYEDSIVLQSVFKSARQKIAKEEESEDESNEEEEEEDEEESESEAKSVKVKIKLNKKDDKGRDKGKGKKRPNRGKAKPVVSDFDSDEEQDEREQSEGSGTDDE
T1 sequence (P51532 whole entry, the tested form may be a part): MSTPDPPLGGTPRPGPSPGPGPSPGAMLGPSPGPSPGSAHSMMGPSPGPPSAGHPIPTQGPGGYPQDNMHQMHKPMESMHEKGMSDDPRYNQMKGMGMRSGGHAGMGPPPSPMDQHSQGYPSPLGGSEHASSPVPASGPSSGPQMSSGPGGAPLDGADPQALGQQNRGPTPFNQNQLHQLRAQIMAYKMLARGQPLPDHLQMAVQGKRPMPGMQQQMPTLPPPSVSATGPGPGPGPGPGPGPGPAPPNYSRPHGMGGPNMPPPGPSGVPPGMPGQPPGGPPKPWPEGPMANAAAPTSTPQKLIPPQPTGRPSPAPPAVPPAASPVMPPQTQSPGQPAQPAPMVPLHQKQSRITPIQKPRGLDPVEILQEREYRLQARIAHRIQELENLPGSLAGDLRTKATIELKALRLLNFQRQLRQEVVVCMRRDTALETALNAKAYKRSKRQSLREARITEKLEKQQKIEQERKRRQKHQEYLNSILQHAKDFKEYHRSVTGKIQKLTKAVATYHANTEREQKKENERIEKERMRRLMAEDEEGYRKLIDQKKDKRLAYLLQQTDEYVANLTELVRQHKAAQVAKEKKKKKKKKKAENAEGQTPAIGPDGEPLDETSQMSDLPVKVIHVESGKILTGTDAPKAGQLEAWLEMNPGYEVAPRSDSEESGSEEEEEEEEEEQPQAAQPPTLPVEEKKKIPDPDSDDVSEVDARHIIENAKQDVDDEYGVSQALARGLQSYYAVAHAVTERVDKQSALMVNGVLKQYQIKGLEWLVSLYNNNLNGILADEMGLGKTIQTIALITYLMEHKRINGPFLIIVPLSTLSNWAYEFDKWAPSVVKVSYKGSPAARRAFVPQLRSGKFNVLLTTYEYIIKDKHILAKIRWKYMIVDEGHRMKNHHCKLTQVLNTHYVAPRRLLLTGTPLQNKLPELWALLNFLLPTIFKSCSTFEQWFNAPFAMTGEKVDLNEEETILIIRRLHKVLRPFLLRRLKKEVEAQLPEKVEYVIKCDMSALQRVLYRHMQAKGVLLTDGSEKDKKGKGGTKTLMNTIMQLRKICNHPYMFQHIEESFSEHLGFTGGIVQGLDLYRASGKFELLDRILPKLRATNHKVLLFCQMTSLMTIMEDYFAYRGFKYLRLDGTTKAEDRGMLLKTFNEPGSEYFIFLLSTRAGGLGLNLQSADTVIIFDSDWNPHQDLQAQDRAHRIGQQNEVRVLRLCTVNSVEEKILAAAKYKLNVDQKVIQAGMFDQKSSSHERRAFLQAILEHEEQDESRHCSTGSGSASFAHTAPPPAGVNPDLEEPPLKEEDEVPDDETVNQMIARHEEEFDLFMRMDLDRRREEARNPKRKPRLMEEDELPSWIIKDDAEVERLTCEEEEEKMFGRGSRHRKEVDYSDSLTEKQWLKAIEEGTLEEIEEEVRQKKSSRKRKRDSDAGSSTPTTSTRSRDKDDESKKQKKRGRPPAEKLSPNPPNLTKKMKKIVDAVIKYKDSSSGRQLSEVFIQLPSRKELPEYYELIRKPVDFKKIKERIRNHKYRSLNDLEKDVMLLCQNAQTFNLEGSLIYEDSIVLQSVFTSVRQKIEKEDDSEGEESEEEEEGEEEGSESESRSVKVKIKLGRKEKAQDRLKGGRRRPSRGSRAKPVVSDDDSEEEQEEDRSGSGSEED

For the compound `Cc1ncsc1-c1ccc([C@H](C)NC(=O)[C@@H]2C[C@@H](O)CN2C(=O)[C@@H](c2cc(-c3cnc(N4CC[C@H](c5cc6nnc(-c7ccccc7O)cc6s5)C4)nc3)no2)C(C)C)cc1` [Compound 91, (2S,4R)-4-hydroxy-1-((R)-2-(3-(2-((S)-3-(3-(2-hydroxyphenyl)thieno[3,2-c]pyridazin-6-yl)pyrrolidin-1-yl)pyrimidin-5-yl)isoxazol-5-yl)-3-methylbutanoyl)-N-((S)-1-(4-(4-methylthiazol-5-yl)phenyl)ethyl)pyrrolidine-2-carboxamide], the Dmax in assay [1] was more than 50%. Moreover, in assay [2], the “BRM HiBit Degradation Maximum (%)” value is on record as “A (“A” indicates maximum degradation ≥75%)” and the DC50 is less than 10 nM.

Take `Cc1nc(N2CCC(c3sc4nnc(-c5ccccc5O)cc4c3C)CC2)ccc1-c1noc([C@H](C(=O)N2C[C@H](O)C[C@H]2C(=O)N[C@@H](C)c2ccc(-c3scnc3C)cc2)C(C)C)c1C` [Compound 92, (2S,4R)-4-hydroxy-1-((R)-2-(3-(6-(4-(3-(2-hydroxyphenyl)-5-methylthieno[2,3-c]pyridazin-6-yl)piperidin-1-yl)-2-methylpyridin-3-yl)-4-methylisoxazol-5-yl)-3-methylbutanoyl)-N-((S)-1-(4-(4-methylthiazol-5-yl)phenyl)ethyl)pyrrolidine-2-carboxamide]: in assay [1], the Dmax was more than 75% and the DC50 is more than 10 nM. Further, in assay [2], the “BRM HiBit Degradation Maximum (%)” value is recorded as “A (“A” indicates maximum degradation ≥75%)” and the DC50 is less than 10 nM.

On to `Cc1nc(N2CCC(c3sc4nnc(-c5ccccc5O)cc4c3C)CC2)ncc1-c1cc([C@H](C(=O)N2C[C@H](O)C[C@H]2C(=O)N[C@@H](C)c2ccc(-c3scnc3C)cc2)C(C)C)on1` [Compound 93, (2S,4R)-4-hydroxy-1-((R)-2-(3-(2-(4-(3-(2-hydroxyphenyl)-5-methylthieno[2,3-c]pyridazin-6-yl)piperidin-1-yl)-4-methylpyrimidin-5-yl)isoxazol-5-yl)-3-methylbutanoyl)-N-((S)-1-(4-(4-methylthiazol-5-yl)phenyl)ethyl)pyrrolidine-2-carboxamide], for which the Dmax in assay [1] is more than 50%. Besides, in assay [2], the “BRM HiBit Degradation Maximum (%)” value is on record as “A (“A” indicates maximum degradation ≥75%)” and the DC50 was less than 10 nM.

Regarding `Cc1nc(N2CC[C@@H](c3sc4nnc(-c5ccccc5O)cc4c3C)C2)ccc1-c1cc([C@H](C(=O)N2C[C@H](O)C[C@H]2C(=O)N[C@@H](C)c2ccc(-c3scnc3C)cc2)C(C)C)on1` [Compound 94, (2S,4R)-4-hydroxy-1-((R)-2-(3-(6-((R)-3-(3-(2-hydroxyphenyl)-5-methylthieno[2,3-c]pyridazin-6-yl)pyrrolidin-1-yl)-2-methylpyridin-3-yl)isoxazol-5-yl)-3-methylbutanoyl)-N-((S)-1-(4-(4-methylthiazol-5-yl)phenyl)ethyl)pyrrolidine-2-carboxamide], the Dmax in assay [1] was less than 50%. Moreover, in assay [2], the “BRM HiBit Degradation Maximum (%)” value is given as “A (“A” indicates maximum degradation ≥75%)” and the DC50 is more than 10 nM.

In the case of `Cc1nc(N2CC[C@H](c3sc4nnc(-c5ccccc5O)cc4c3C)C2)ccc1-c1cc([C@H](C(=O)N2C[C@H](O)C[C@H]2C(=O)N[C@@H](C)c2ccc(-c3scnc3C)cc2)C(C)C)on1` [Compound 95, (2S,4R)-4-hydroxy-1-((R)-2-(3-(6-((S)-3-(3-(2-hydroxyphenyl)-5-methylthieno[2,3-c]pyridazin-6-yl)pyrrolidin-1-yl)-2-methylpyridin-3-yl)isoxazol-5-yl)-3-methylbutanoyl)-N-((S)-1-(4-(4-methylthiazol-5-yl)phenyl)ethyl)pyrrolidine-2-carboxamide], the Dmax in assay [1] is less than 50%. Further, in assay [2], the “BRM HiBit Degradation Maximum (%)” value was “A (“A” indicates maximum degradation ≥75%)” and the DC50 is less than 10 nM.

On to `Cc1cc(N2CC[C@@H](c3sc4nnc(-c5ccccc5O)cc4c3C)C2)ncc1-c1cc([C@H](C(=O)N2C[C@H](O)C[C@H]2C(=O)N[C@@H](C)c2ccc(-c3scnc3C)cc2)C(C)C)on1` [Compound 96, (2S,4R)-4-hydroxy-1-((R)-2-(3-(6-((R)-3-(3-(2-hydroxyphenyl)-5-methylthieno[2,3-c]pyridazin-6-yl)pyrrolidin-1-yl)-4-methylpyridin-3-yl)isoxazol-5-yl)-3-methylbutanoyl)-N-((S)-1-(4-(4-methylthiazol-5-yl)phenyl)ethyl)pyrrolidine-2-carboxamide], for which the Dmax in assay [1] is less than 50%. Besides, in assay [2], the “BRM HiBit Degradation Maximum (%)” value is “B (“B” indicates maximum degradation ≥50%)” and the DC50 is more than 10 nM.

In the case of `Cc1cc(N2CC[C@H](c3sc4nnc(-c5ccccc5O)cc4c3C)C2)ncc1-c1cc([C@H](C(=O)N2C[C@H](O)C[C@H]2C(=O)N[C@@H](C)c2ccc(-c3scnc3C)cc2)C(C)C)on1` [Compound 97, (2S,4R)-4-hydroxy-1-((R)-2-(3-(6-((S)-3-(3-(2-hydroxyphenyl)-5-methylthieno[2,3-c]pyridazin-6-yl)pyrrolidin-1-yl)-4-methylpyridin-3-yl)isoxazol-5-yl)-3-methylbutanoyl)-N-((S)-1-(4-(4-methylthiazol-5-yl)phenyl)ethyl)pyrrolidine-2-carboxamide], the Dmax in assay [1] is less than 50%. In assay [2], the “BRM HiBit Degradation Maximum (%)” value was “A (“A” indicates maximum degradation ≥75%)” and the DC50 was more than 10 nM.

Turning to `Cc1ncsc1-c1ccc([C@H](C)NC(=O)[C@@H]2C[C@@H](O)CN2C(=O)[C@@H](c2cc(N3CCC4(CC3)CC(c3cc5cc(-c6ccccc6O)nnc5s3)C4)no2)C(C)C)cc1` [Compound 98, (2S,4R)-4-hydroxy-1-((R)-2-(3-(2-(3-(2-hydroxyphenyl)thieno[2,3-c]pyridazin-6-yl)-7-azaspiro[3.5]nonan-7-yl)isoxazol-5-yl)-3-methylbutanoyl)-N-((S)-1-(4-(4-methylthiazol-5-yl)phenyl)ethyl)pyrrolidine-2-carboxamide], in assay [1], the Dmax was more than 75% and the DC50 is more than 100 nM. In addition, in assay [2], the “BRM HiBit Degradation Maximum (%)” value is given as “A (“A” indicates maximum degradation ≥75%)” and the DC50 is more than 10 nM.

For `Cc1ncsc1-c1ccc([C@H](C)NC(=O)[C@@H]2C[C@@H](O)CN2C(=O)[C@@H](c2cc(C3CCN(c4cnc(N5CCC(c6sc7nnc(-c8ccccc8O)cc7c6C)CC5)nc4)CC3)no2)C(C)C)cc1` [Compound 100, (2S,4R)-4-hydroxy-1-[(2R)-2-{3-[1-(2-{4-[3-(2-hydroxyphenyl)-5-methylthieno[2,3-c]pyridazin-6-yl]piperidin-1-yl}pyrimidin-5-yl)piperidin-4-yl]-1,2-oxazol-5-yl}-3-methylbutanoyl]-N-[(1S)-1-[4-(4-methyl-1,3-thiazol-5-yl)phenyl]ethyl]pyrrolidine-2-carboxamide], in assay [1], the Dmax is more than 50% and the DC50 is more than 10 nM. Moreover, in assay [2], the “BRM HiBit Degradation Maximum (%)” value is on record as “A (“A” indicates maximum degradation ≥75%)” and the DC50 is less than 10 nM.

On to `Cc1cc(-c2cc([C@H](C(=O)N3C[C@H](O)C[C@H]3C(=O)N[C@@H](C)c3ccc(-c4scnc4C)cc3)C(C)C)on2)cnc1N1CC[C@@H](c2sc3nnc(-c4ccccc4O)cc3c2C)C1` [Compound 101, (2S,4R)-4-hydroxy-1-((R)-2-(3-(6-((R)-3-(3-(2-hydroxyphenyl)-5-methylthieno[2,3-c]pyridazin-6-yl)pyrrolidin-1-yl)-5-methylpyridin-3-yl)isoxazol-5-yl)-3-methylbutanoyl)-N-((S)-1-(4-(4-methylthiazol-5-yl)phenyl)ethyl)pyrrolidine-2-carboxamide], for which, in assay [1], the Dmax is less than 50%. In assay [2], the “BRM HiBit Degradation Maximum (%)” value is given as “A (“A” indicates maximum degradation ≥75%)” and the DC50 is more than 10 nM.

For `Cc1ncsc1-c1ccc([C@H](C)NC(=O)[C@@H]2C[C@@H](O)CN2C(=O)[C@@H](c2cc(-c3ccc(N4CCC(c5sc6nnc(-c7ccccc7O)cc6c5C)CC4)c(F)c3)no2)C(C)C)cc1` [Compound 103, (2S,4R)-1-((R)-2-(3-(3-fluoro-4-(4-(3-(2-hydroxyphenyl)-5-methylthieno[2,3-c]pyridazin-6-yl)piperidin-1-yl)phenyl)isoxazol-5-yl)-3-methylbutanoyl)-4-hydroxy-N-((S)-1-(4-(4-methylthiazol-5-yl)phenyl)ethyl)pyrrolidine-2-carboxamide], in assay [1], the Dmax was less than 50%. Also, in assay [2], the “BRM HiBit Degradation Maximum (%)” value is given as “A (“A” indicates maximum degradation ≥75%)” and the DC50 is less than 10 nM.
